Reference: patent US4565813A, “1,4-Thiazine derivatives” (Zenyaku Kogyo Kabushiki Kaisha, priority 1983, dated 1986)
Like-named read-outs stand apart in the source and are kept apart here.

How the values were obtained:
coronary blood flow = assay: Coronary-vasodilating action (Langendorff's method); set-up: species or system guinea pig (male Hartley); conditions: Cavia porcellus; for activation at 0.1 mg: dose 100 μg
Method: (3) The coronary-vasodilating effect was tested according to the method disclosed in Basic Lectures of Medicine Development, Volume V, Pharmacological Test Methods, Part 2, page 537 (1971). A 7-weeks-old male Hartley guinea pig (having a body weight of about 350 g) was used. And the measurement was carried out under a perfusion pressure of about 60 mmHg according to the Langendorff's method by using as a nutrient solution a Krebs' solution. The incubation temperature was 37° C.

isolated atria = assay: Contractile force of isolated atria; set-up: species or system guinea pig (male Hartley); conditions: Cavia porcellus; 50.0 μg/ml, isolated guinea pig atria; read-out: Maximum Contractile Force (increase)
Method: The pharmacological effects of the compound of the following general formula I will now be described: [drawing 9] wherein R1, R2 and R3 are as defined above. (1) The contractile force of isolated atria was tested according to the method of L. J. Macleod described in Pharmacological Experiments on Intact Preparations, pages 112-115 (1970). A 7-weeks-old male Hartley guinea pig (having a body weight of about 350 g) was killed by a blow on the head. The chest was opened and the heart was removed as quickly as possible and placed in Ringer-Locke solution (prepared by adding distilled water to 9.0 g of sodium chloride, 0.25 g of potassium chloride, 0.15 g of calcium chloride and 1.0 g of glucose so that the total amount was 1,000 ml) at room temperature. All other tissues was cut away until nothing was left except the atria. Threads were tied to each tip of the atria and the preparation thus obtained was mounted in Ringer-Locke solution at 30±1° C., through which a brisk stream of pure oxygen was bubbled. One thread was attached to a fixed pin in the Magnus' bath and the other to a force-displacement transducer connected to an electrical amplifier and recorder. When the rate and amplitude became constant, recording was started. After 1 minute, the solution of sample compound was injected and recording was conducted for 2 minutes. After completion of recording, the isolated atria was washed with Ringer-Locke solution until the rate and amplitude became constant. After 15 minutes, recording was started again.

[1] = tested on: systolic blood pressure and heart rate, rats; assay: Effect on systolic blood pressure and heart rate (indirect tail-cuff method); format: in vivo, rat (male Wistar); conditions: 25 mg/kg p.o.
Method: Male Wister rats (having a body weight of about 350 g) were used. Systolic blood pressure and heart rate were measured in rats by indirect tail-cuff method, using a programmed electrosphymomanometer.

[2] = tested on: isolated papillary muscles; assay: Contractile force of isolated papillary muscles; set-up: species or system cat (female); conditions: Felis catus, isolated cat papillary muscles, read-out: Maximum Contractile Force (increase); for activation at 10 µg/mL: 1.0 × 10^-5 g/ml
Method: (2) The contractile force of isolated papillary muscles was tested according to the method described in Basic Lectures of Medicine Development, Volume V, Pharmacological Test Methods, Part 2, page 535 (1971). A female cat (having a body weight of about 3.5 kg) was anaesthetized with ether-chloroform gas and exsanguinated. The chest of each cat was opened and the heart was excised, rinsed with Krebs-Henseleitsolution (prepared by adding distilled water to 6.92 g of sodium chloride, 0.35 g of calcium chloride, 0.29 g of magnesium sulfate, 0.16 g of mono-basic potassium phosphate, 2.1 g of sodium bicarbonate and 1.8 g of glucose so that the total amount was 1 l) and one or more small, thin papillary muscles from the right ventricule were dissected. Then papillary muscles were mounted in 20 ml Magnus' bath containing Krebs-Henseleit solution bubbled with oxygen gas at a temperature of 30±1° C. The papillary muscles were stimulated electrically at the rate of 2 beat/sec. and a voltage of 20% above threshold. The developed tension of the muscles was recorded isometrically on recorder by the use of force displacement tansducers.

[3] = tested on: ventricular muscle and heart rate, anaesthetized dog; assay: Contractile force of ventricular muscle and heart rate of anaesthetized dog; format: in vivo, dog (male); conditions: for Heart Rate (up): infused i.v. 320 μg/kg/minute, anaesthetized dog; for Contractile Force of Ventricular Muscles (increase): infused i.v. (left femoral vein) 320 μg/kg/minute until maximum inotropic effect
Method: (4) The contractile force of ventricular muscle and heart rate in anaesthetized dog was tested according to the method described in Basic Lectures of Medicine Development, Volume V, Pharmacological Test Methods, Part 2, page 544 (1971). A male dog (having a body weight of about 12-14 kg) was anaesthetized with 40 mg/kg body weight of pentobarbital sodium (i.p.). Supplemental dose of pentobarbital was administered whenever necessary. An intra-tracheal cannula was inserted and ventilation was carried out by means of Harvard constant-volume, positive pressure pump using room air. The chest was opened by a midline incision and the heart was suspended in the pericardial cradle. The contratile force of the myocardium was measured by means of Walton-Brodie type strain-gauge arch sutured onto the left ventricle. Systemic blood pressure was measured from the left femoral artery by a pressure transducer and heart rate was calculated by blood pressure pulses. Sample compounds were infused into the left femoral vein at a rate of 320 μg/kg/minute until a maximum inotropic effect is obtained.

[4] = tested on: smooth muscle of bronchus; assay: Bronchodilation effect (tracheal ring chain); set-up: species or system guinea pig (male Hartley)
Method: (7) The bronchodilation effect was tested according to the method of L. J. Macleod in Pharmacological Experiments on Intact Preparations, Pages 100-103 (1970). A 7-weeks-old, male Hartley guinea pig (having a body weight of about 350 g) was killed by a blow on the head and cutting the throat. The trachea was dissected out and transferred into Krebs' solution. The excessive tissue was removed and the trachea was cut transversely with great care not to damage smooth muscle, to form at least 5 tracheal rings which are tied together so as to form chain. One thread was attached to a fixed pin in the Magnus' bath and the other, to a force-displacement transducer connected to an electrical amplifier and recorder. Experiments with this preparation were performed at 37±1° C. in Krebs' solution through which O2 plus 5% CO2 was bubbled. The sample compound was injected and the recording was conducted for 4 minutes. After completion of the recording, the sample was washed out with Krebs' solution until the base line became stable. After 30 to 50 minutes, the recording was started again.

platelet aggregation = assay: Inhibition of platelet aggregation; format: cell-based, rat (male Wistar); conditions: Rattus norvegicus, 83.0 μg/ml
Method: (5) The inhibition of platelet aggregation was determined according to the method of Yamazaki [Hiroo Yamazaki, Clinical Inspections, 22, (9) 935-943 (1978)]. Eleven-weeks-old male Wistar rats (having a body weight of about 350 g) were used. Blood was drawn by venupuncture in the […]. Nine fold volume of blood was drawn, with mixing, into a syringe containing one volume of 3.1% (W/V) sodium citrate. Platelet-rich-plasma (PRP) was collected as the supernatant after centrifuging the citrated blood at 1,000 rpm for 10 min. Platelet-poor-plasma (PPP) was the resulting supernatant after the residual citrated blood was additionally centrifuged at 3,000 rpm for 10 min. Each 210 μl aliquot of PPP and PRP was placed in cuvette and stirred at 37° C. in aggregometer. The aggregation reactions were determined by changes in light transmissions. A 20 μl sample was injected into PRP in the aggregometer, and 1-2 min. later, a 20 μl aggregation stimulant was injected. Aggregation pattern and maximal aggregation rate of each sample were compared with those of control. 100 μM of ADP (adenosine-5'-diphosphate or 100 μg/ml of collagen was used as the aggregation stimulant. The obtained results are shown in Table 5.

[5] = Acute toxicity (Litchfield-Wilcoxon method); conditions: mouse, in vivo, iv; tail vein, 6-weeks-old male ddY mice
Method: The acute toxicity of the compound of the general formula I was determined according to the Litchfield-Wilcoxon method [J. Pharm. Exp. Ther., 96, 99 (1949)] using 6-weeks-old male ddY mice (having a body weight of 19 to 24 g) while administrating the sample compound in the tail vein.

[6] = read-out: Coronary Blood Flow Increase Ratio, Maximum Increase Ratio of Sample
[7] = 0.5 h, dose 500 μg, 30 minutes, read-out: Coronary Blood Flow Increase Ratio, 30 Minutes after Administration
[8] = dose 500 μg, read-out: Coronary Blood Flow Increase Ratio, Maximum Increase Ratio of Sample

| SMILES | activation at 50 µg/mL (isolated atria) | Blood Pressure (systolic), direction of change [1] | Heart Rate (up) [1] | activation at 0.5 mg (coronary blood flow; [7]) | activation at 0.5 mg (coronary blood flow; [8]) | other results |
| --- | --- | --- | --- | --- | --- | --- |
| CC1=C(c2ccncc2)SCC(=O)N1C [R1 = CH3, R2 = CH3, R3 = H, 4,5-dimethyl-6-(4-pyridinyl)-2H-1,4-thiazin-3-one] | 18% |  |  |  |  | activation at 0.1 mg (coronary blood flow; 0.5 h, 30 minutes, read-out: Coronary Blood Flow Increase Ratio, 30 Minutes after Administration): 8%; activation at 0.1 mg (coronary blood flow; [6]): 28% |
| Cc1[nH]c(=O)c(C#N)cc1-c1ccncc1 [Milrinone] |  | decrease | 51% |  |  |  |
| Cn1c(=O)c2[nH]cnc2n(C)c1=O [Theophylline, reference compound] |  | increase | 29% | -10% | 32% |  |
| CC1=C(C2CCNCC2)SCC(=O)N1 [By-product, 5-methyl-6-(4-piperidinyl)-2H-1,4-thiazin-3(4H)-one] | 5% |  |  | 5% | 12% |  |
| Nc1cc(-c2ccncc2)c[nH]c1=O [amrinone, reference compound] |  |  |  |  |  | activation at 100 µg/mL ([2]; 1.0 × 10^-4 g/ml): 77%; activation at 10 µg/mL [2]: 17%; Heart Rate (up) [3]: 25%; Contractile Force of Ventricular Muscles (increase) [3]: 25% |
| CC(C)NCC(O)c1ccc(O)c(O)c1 (centres unmarked) [isoproterenol, reference compound] | 40% |  |  |  |  |  |
| O=NO [Sodium nitrite, reference compound] |  |  |  |  |  | activation at 0.5 mg (coronary blood flow; 0.5 h, read-out: Coronary Blood Flow Increase Ratio, 30 Minutes after Administration): 5%; activation at 0.5 mg (coronary blood flow; [6]): 20% |
| CC1=C(c2ccncc2)SCC(=O)N1 [R1 = H, R2 = CH3, R3 = H, 5-methyl-6-(4-pyridinyl)-2H-1,4-thiazin-3(4H)-one] | 40% | decrease | 19% | 10% | 71% | activation at 10 µg/mL [2]: 61%; activation at 1 µg/mL ([2]; 1.0 × 10^-6 g/ml): 27%; Heart Rate (up) [3]: 30%; Contractile Force of Ventricular Muscles (increase) [3]: 170%; Influence of Smooth Muscle of Bronchus (relaxed by) [4]: ≥ 0.13 m/m; inhibition at 83 µg/mL (platelet aggregation; stimulant 100 μM ADP, read-out: Aggregation Inhibition Ratio, ADP): 80%; inhibition at 83 µg/mL (platelet aggregation; stimulant 100 μg/ml collagen, read-out: Aggregation Inhibition Ratio, Collagen): 100%; LD50 [5]: 165 to 200 mg/kg |
